Measurements as given in patent EP0472304A2, “Pharmaceutical compositions containing therapeutically active organosilane derivatives and process for preparing same” (Richter Gedeon Vegyészeti Gyár R.T., priority 1990, dated 1992).
Marks after values point to notes of the source that are not given here.

Assays:
flexor reflex = experiment: Investigation of the flexor reflex on anaesthetized cats; type: in vivo; conditions: chloralose-anaesthetized cats
Excerpt: Method 3: Investigation of the flexor reflex on anaesthetized cats
Chloralose-anaesthetized cats of both sexes weighing 2.2-5.4 kg each were used in these experiments. The flexor reflex of the animals was studied by using the quantitative electromyographic method of Farkas et al [Pharmacol. Res. Comm. 20, Suppl. 1, 141 (1988)].
The results summarized in Table 1 are the values calculated from the average results of 4 to 8 experiments. The duration of effect was characterized by the time passing from the administration of this dose until the return to 75% of the control value (T75%).
The pharmacological activities of the compounds showing the most prominent effects together with the activity of tolperisone used as reference drug are shown in Table 1.

Straub's tail = Straub's tail test (morphine-induced); type: in vivo, male OF-1 mice; conditions: Mus musculus, ip; mice, i.p., pretreatment 20 min before reading; 60 mg/kg i.p. morphine hydrochloride
Experimental: Method 2: Straub's tail test
The method of Novack [Drug Development Res. 2, 383 (1982)] was used with a slight modification. Groups consisting of 10 male OF-1 mice each weighing 19 to 21 g were intraperitoneally treated with 60 mg/kg of morphine hydrochloride. The formation of Straub's tail was judged 15 minutes after the morphine treatment. This was considered to be positive when the animal kept his tail permanently upwards at an angle being steeper than 45°. A pretreatment was carried out with various doses of the compound to be tested 20 minutes before the time of reading. The ED50 value, i.e. the dose inhibiting the positive response in 50% of the animals, was calculated by using the method of Litchfield and Wilcoxon.
(The above author found a good relation between the activity shown in the above test and the clinical effectivity of central muscle relaxants.)

[1] = test system: GYKI-20039-induced tremor; experiment: Test on the GYKI-20039-induced tremor; type: in vivo, male CFLP mice; conditions: Mus musculus, iv; mice, pretreatment time 0 min; dose causing 50% inhibition of tremor induced by 10 mg/kg i.p. GYKI-20039
Experimental: Method 1: Test on the GYKI-20039-induced tremor
Groups consisting of 10 to 20 male CFLP mice each weighing 19 to 21 g were intraperitoneally (i.p.) treated with 10 mg/kg of GYKI-20039 (test substance). Similarly to the structurally related compound of code number LON-954, GYKI-20039 induces a tremor on mice which is considered as the experimental model of the Parkinson's disease [Coward et al., Psychopharmacology 52, 165 (1977); Andrasi et al. IX Internat. Congress of Neuropathology, 1-98, 209, Vienna 1982]. The tremor induced by GYKI-20039 reaches a maximum strength 4 to 8 minutes following administration of the test substance, then it continuously diminishes and is finished within about 1 hour. According to our experiences obtained on ten known central muscle relaxants, this tremor can be inhibited by central muscle relaxants in a dose-dependent manner and is useful for the assay (evaluation) of the central muscle relaxant effects. After administration of the test substance, the mice were suspended on an isometric dynamometer in a light plastic box and the strength of the tremor was measured and quantified by electronic integration. The tremor strength of the mice was averaged in the 4th-8th minutes after treatment with the test substance.
The animals were pretreated with various doses of the muscle relaxants to be tested before the treatment with the test substance. […]

[2] = 10 mg/kg i.v., time until return to 75% of the control value

SMILES	Duration of effect T75% (flexor reflex; i.v., the effect of 5 mg/kg was investigated)	ED50 (Straub's tail)	Duration of effect T75% (flexor reflex; [2])	ED50 [1]
C[Si](C)(CN1CCCC1)c1ccccc1.Cl [Compound 3, N-[(dimethyl-phenylsilyl)methyl]pyrrolidine hydrochloride]	50** min	37.7 mg/kg		
C[Si](C)(CN1CCCCC1)c1ccc(F)cc1.Cl [Compound 5, N-([dimethyl-(4-fluorophenyl)silyl]methyl)piperidine hydrochloride]		17.8 mg/kg	> 180 min	
C[Si](C)(CN1CCCC1)c1ccc(F)cc1.Cl [Compound 6, N-([dimethyl-(4-fluorophenyl)silyl]methyl)pyrrolidine hydrochloride]		26.9 mg/kg	> 180 min	
Cc1ccc(C(=O)C(C)CN2CCCCC2)cc1 (stereo not drawn) [Tolperisone, tolperisone, reference compound]		63 mg/kg	50 min	10.2 mg/kg
C[Si](C)(CN1CCCCC1)c1ccc(F)cc1.O=C(O)/C=C/C(=O)O [Compound 4, N-([dimethyl-(4-fluorophenyl)silyl]methyl)piperidine fumarate]		19.1 mg/kg	180 min	
C[Si](C)(CN1CCCCC1)c1ccccc1.O=C(O)/C=C/C(=O)O [Compound 1, N-[(dimethyl-phenylsilyl)methyl]piperidine fumarate]		30.7 mg/kg		
